Like-named read-outs stand apart in the source and are kept apart here.
Columns and labels:
[1] = In vitro plasma protein binding (ultrafiltration), monkey plasma; assay type: in vitro ADME, monkey (Cynomolgus); details: 10-10,000 ng/mL, mean±SD, read-out: mean unbound protein fraction (fu) in plasma
Method: (§1) For human binding studies, plasma was obtained from the blood of three healthy male volunteers. Plasma was defrosted from storage at -20° C. before use, and pools of human plasma were used for all studies. Plasma from mouse, rat, and monkey was supplied by Harlan Laboratories Ltd. (Netherlands), Milan […], Switzerland) and Centre de Primatologie ULP (France), respectively. Protein binding was measured using an ultrafiltration method. To asses the suitability of ultrafiltration, the recovery and free permeation of [^14C]-labelled Compound 1 in PBS buffer were investigated. […] Three 1 mL aliquots per concentration were introduced into […]® devices and spun for 1 min at 2000 g (filtrate ≤500 μL). Samples of the spiked solutions, the filtrate and retentate were quantified by LSC; volumes were determined by weighing. The free permeation of the test compound in PBS was evaluated as follows: Ratio=[Cuf/Cr] with Cuf being the concentration in the ultrafiltrate (ng/mL) and Cr the concentration in the retentate (ng/mL). […] Specifically, concentrations of Compound 1 was determined by an UPLC-MS/MS method. […] Standards and quality control samples were prepared on the day of analysis by adding a 20 μL aliquot of an appropriate standard or QC spiking solution in methanol. A 25 μL aliquot of the internal standard (at 200 ng/mL in methanol) was added to each well except blanks. […] Samples were processed using protein precipitation. A 0.5 mL aliquot of an acetonitrile/ethanol/acetic acid mixture (90:10:0.1, v:v:v) was added to each sample; samples were mixed using a vortex mixer for 10 minutes, and centrifuged 3800 rpm (approximately 2500×g) for 10 min at 10° C. […] The ions monitored for Compound 1 was the parent [M+H]^+ ion at m/z 557.3.0; the product ions at m/z 453.4. […] The quantification was performed using Analyst software and Watson LIMS version 7.2.0.01. Concentrations in QC and study samples were calculated from the resulting peak area ratios and interpolation from the regression equations of the respective calibration curves. The lower limit of quantitation was 5.0 ng/mL for Compound 1.

plasma proteins = assay: as above; assay type: in vitro ADME, monkey (Cynomolgus); details: 10-10,000 ng/mL
Method: as §1

K. pneumoniae FQR = assay: In vitro MIC, 2010 surveillance isolates; assay type: cell-based, Klebsiella pneumoniae; details: N=412
E. coli = assay: In vitro activity in urine relative to standard media; assay type: cell-based
S. marcescens = assay: In vitro MIC, 2010 surveillance isolates; assay type: cell-based; details: N=424
[2] = Pharmacokinetics of Compound 1 in mouse plasma versus kidney; assay type: in vivo
[3] = cited from earlier work
human plasma protein = details: cited from earlier work

CN(C)c1cc(CNCC(C)(C)C)c(O)c2c1C[C@H]1C[C@H]3[C@H](N(C)C)C(O)=C(C(N)=O)C(=O)[C@@]3(O)C(O)=C1C2=O [Compound 1, 9-[(2,2-dimethyl-propylamino)-methyl]-minocycline]
fraction unbound [1]: 0.788 ± 0.0726
Mean (SD) Bound Fraction (plasma proteins): 21.2 (7.26) %
mean unbound protein fraction (fu) in plasma (plasma proteins; mean±SD): 78.8±7.3%
Cumulative % Inhibition at MIC (K. pneumoniae FQR; MIC 1 μg/ml): 15.3%
Cumulative % Inhibition at MIC (K. pneumoniae FQR; MIC 2 μg/ml): 48.8%
Cumulative % Inhibition at MIC (K. pneumoniae FQR; MIC 4 μg/ml): 72.6%
Cumulative % Inhibition at MIC (K. pneumoniae FQR; MIC 8 μg/ml): 86.7%
Cumulative % Inhibition at MIC (K. pneumoniae FQR; MIC 16 μg/ml): 92.7%
Cumulative % Inhibition at MIC (K. pneumoniae FQR; MIC ≤0.5 μg/ml, listed as head image P00012): 1.2%
Cumulative % Inhibition at MIC (K. pneumoniae FQR; MIC ≥32 μg/ml): 100%
activity in urine relative to standard media (E. coli): stable
Cumulative % Inhibition at MIC (S. marcescens; MIC 1 μg/ml): 0.7%
Cumulative % Inhibition at MIC (S. marcescens; MIC 2 μg/ml): 20.3%
Cumulative % Inhibition at MIC (S. marcescens; MIC 4 μg/ml): 76.2%
Cumulative % Inhibition at MIC (S. marcescens; MIC 8 μg/ml): 91.0%
Cumulative % Inhibition at MIC (S. marcescens; MIC 16 μg/ml): 93.6%
Cumulative % Inhibition at MIC (S. marcescens; MIC ≤0.5 μg/ml, listed as head image P00017): 0%
Cumulative % Inhibition at MIC (S. marcescens; MIC ≥32 μg/ml): 100%
Kp ([2]; kidney/plasma, sc, Subcutaneous, 4.0 mg/kg, read-out: AUC Ratio Kidney:Plasma): 4.2
AUC(0-inf) ([2]; plasma, sc, Subcutaneous, 4.0 mg/kg): 2820 ng·h/mL
Kp ([2]; tissues including kidney, relative to plasma, subcutaneous, 4 mg/kg, species not printed at b200, read-out: concentrations in tissues including the kidneys relative to plasma): ~4
peak plasma concentration ([3]; 100 mg IV dose): 1.8 mg/L
peak plasma concentration ([3]; 300 mg oral dose): 0.6 mg/L
elimination half-life ([3]; phase 1 studies): approximately 17 hours

CN(C)c1cc(NC(=O)CNC(C)(C)C)c(O)c2c1C[C@H]1C[C@H]3[C@H](N(C)C)C(O)=C(C(N)=O)C(=O)[C@@]3(O)C(O)=C1C2=O [Tigecycline]
type of plasma protein binding (human plasma protein; binding increases with increasing drug concentrations): atypical, non-linear protein binding
human plasma protein binding, Mean (human plasma protein; literature): 71-87%

— patent US10238670B2, “9-aminomethyl minocycline compounds and methods of use thereof in urinary tract infection (UTI) treatment” (Paratek Pharmaceuticals, Inc., priority 2016, dated 2019)
